# Laboratory results from PMC11571031 (Protein Science : A Publication of the Protein Society, 2024).
# Experiments:
# CbTan1 = CbTan1 (Clostridium butyricum, UniProt C4IC90)
# CbTan2 = CbTan2 (Clostridium butyricum, UniProt A0A6M0U600)
# Sequence of CbTan2 (A0A6M0U600 1-490 limits assumed): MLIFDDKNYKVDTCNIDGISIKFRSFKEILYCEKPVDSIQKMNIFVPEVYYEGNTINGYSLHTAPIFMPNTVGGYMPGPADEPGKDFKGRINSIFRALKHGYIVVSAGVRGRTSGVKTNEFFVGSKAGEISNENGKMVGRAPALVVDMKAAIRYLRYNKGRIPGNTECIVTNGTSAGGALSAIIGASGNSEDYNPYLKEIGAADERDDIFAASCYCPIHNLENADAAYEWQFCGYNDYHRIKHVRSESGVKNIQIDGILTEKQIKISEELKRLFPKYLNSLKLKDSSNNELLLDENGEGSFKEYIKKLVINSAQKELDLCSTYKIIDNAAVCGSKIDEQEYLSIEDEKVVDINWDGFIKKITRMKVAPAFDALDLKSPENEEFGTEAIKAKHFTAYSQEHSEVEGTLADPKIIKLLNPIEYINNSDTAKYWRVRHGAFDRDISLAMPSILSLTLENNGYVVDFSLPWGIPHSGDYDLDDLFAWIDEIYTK
# Sequence of CbTan1 (C4IC90 25-633 limits assumed): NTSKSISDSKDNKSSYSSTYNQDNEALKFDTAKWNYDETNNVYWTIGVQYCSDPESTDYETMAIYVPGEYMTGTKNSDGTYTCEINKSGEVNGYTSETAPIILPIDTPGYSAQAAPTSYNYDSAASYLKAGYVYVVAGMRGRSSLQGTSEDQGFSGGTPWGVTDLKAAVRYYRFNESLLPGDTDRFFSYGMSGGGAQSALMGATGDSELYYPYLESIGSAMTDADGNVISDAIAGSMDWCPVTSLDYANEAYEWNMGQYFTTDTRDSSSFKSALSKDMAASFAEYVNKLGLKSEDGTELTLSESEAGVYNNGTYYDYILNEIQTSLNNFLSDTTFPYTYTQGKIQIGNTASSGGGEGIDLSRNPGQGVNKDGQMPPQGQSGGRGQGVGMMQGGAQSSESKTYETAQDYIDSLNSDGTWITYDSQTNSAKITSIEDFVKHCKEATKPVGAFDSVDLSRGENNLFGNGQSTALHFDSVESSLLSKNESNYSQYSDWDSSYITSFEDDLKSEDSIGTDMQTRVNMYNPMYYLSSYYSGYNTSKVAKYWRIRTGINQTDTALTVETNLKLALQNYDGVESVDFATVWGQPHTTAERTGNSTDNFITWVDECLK
Compound,K i (mM) ^a (CbTan1),K i (mM) ^a (CbTan2)
"O=C(O[C@@H]1Cc2c(O)cc(O)cc2O[C@@H]1c1cc(O)c(O)c(O)c1)c1cc(O)c(O)c(O)c1 [EGCG, epigallocatechin gallate]",1.11 ± 0.54 mM,1.92 ± 0.59 mM
"O=C(O[C@@H]1O[C@H](CO)[C@@H](O)[C@H](O)[C@H]1O)c1cc(O)c(O)c(O)c1 [GG, β-glucogallin]",35.9 ± 6.77 mM,8.51 ± 2.39 mM
"COC(=O)c1cc(O)c(O)c(O)c1 [MG, methyl gallate]",,44.0 ± 6.42 mM
